Experimental data published in patent US20250092065A1, “2-(INDAZOL-5-YL)-6-(PIPERIDIN-4-YL)-1,7-NAPHTHYRIDINE DERIVATIVES AND RELATED COMPOUNDS AS MODULATORS FOR SPLICING NUCLEIC ACIDS AND FOR THE TREATMENT OF PROLIFERATIVE DISEASES” (REMIX THERAPEUTICS INC., priority 2022, published 2025).
Read-outs that look alike come from different tables or passages of the source.

Legend:
SMN2 mRNA = test: RT-qPCR splicing assay, SMN2 mRNA; type: cell-based, human; conditions: Homo sapiens, canonical junction qPCR panel, Table 4; read-out: SMN2 IC50 (decrease in CJ mRNA levels)
Summary of the method: (§1)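 Canonical and alternative-exon junction isoforms were quantified by RT-qPCR in cell lysates, with ΔCt against a housekeeper (GAPDH/GUSB/PPIA), then ΔΔCt vs DMSO, converted to 2^(−ΔΔCt) and percent response. K562 or A673 cells were exposed for 24 h to 11 concentrations (3-fold, top final 10 uM).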

MYB mRNA = test: RT-qPCR splicing assay, MYB mRNA canonical (CJ) and alternative (AJ) junction; type: cell-based, human; conditions: Homo sapiens; for AC50: MYB alternative junction mRNA increase, read-out: MYB AJ (increase in alternative junction mRNA, AC50)
Summary of the method: as §1

K562 cells = test: Cell Titer Glo 2.0 cell viability (toxicity) assay, K562; conditions: 500 cells/well, 72 hours
Target C = test: RT-qPCR canonical junction panel assay, Target C mRNA; type: cell-based; conditions: Table 4, read-out: Target C IC50 (decrease in CJ mRNA levels)
Protocol: Compounds described herein were used to modulate RNA transcript abundance in cells. The expression of a target mRNA was measured by detecting the formation of an exon-exon junction in the canonical transcript (CJ). A compound mediated exon-inclusion event was detected by observing an increase in formation of a new junction with an alternative exon (AJ). Real-time qPCR assays were used to detect these splicing switches and interrogate the potency of various compounds towards different target genes. A high-throughput real time quantitative PCR (RT-qPCR) assay was developed to measure these two isoforms of the mRNA (CJ and AJ) for exemplary genes, such as HTT, SMN2, and MYB, together with a control housekeeping gene, GAPDH or GUSB or PPIA, used for normalization. Briefly, the A673 or K562 cell line was treated with various compounds described herein (e.g., compounds of Formula (I)). After treatment, the levels of the HTT, MYB, or SMN2 mRNA targets were determined from each sample of cell lysate by cDNA synthesis followed by qPCR.
The data analysis was performed by first determining the ΔCt vs the housekeeper gene. This ΔCt was then normalized against the DMSO control (ΔΔCt) and converted to RQ (relative quantification) using the 2^(−ΔΔCt) equation. The RQ were then converted to a percentage response by arbitrarily setting an assay window of 3.5 and 4.0 ΔCt for HTT-CJ and MYB-CJ respectively and an assay window of 9 and 3 ΔCt for HTT-AJ and MYB-AJ in 96 well format (50,000 K562 cells/well and 15,000 A673 cells per well) and an assay window of 3 and 4 ΔCt for HTT-CJ and MYB-CJ respectively and an assay window of 5 and 3 ΔCt for HTT-AJ and MYB-AJ respectively in 384 well format (8,000 K562 cells/well example). […] The percentage response was then fitted to the 4 parametric logistic equation to evaluate the concentration dependence of compound treatment. The increase in AJ mRNA is reported as AC50 (compound concentration having 50% response in AJ increase) while the decrease in CJ mRNA levels is reported as IC50 (compound concentration having […] in CJ decrease).
Additional studies were carried out for a larger panel of genes using the protocol provided above. The junction between flanking upstream and downstream exons was used to design canonical junction Qpcr assays. At least one of the forward primer, reverse primer or the CY5-labeled 5′ nuclease probe (with 3′ quencher such as ZEN/Iowa Black FQ) was designed to overlap with the exon junction to capture the CJ Mrna transcript. BLAST was used to confirm the specificity of the probeset and parameters suCH As melting temperature, GC content, amplicon size, and primer dimer formation are considered during their design. Data for the decrease in CJ Mrna levels for four exemplary genes (HTT, SMN2, MYB, and Target C) analyzed in this panel are reported as IC50 (compound concentration having […] in CJ decrease).

HTT mRNA = test: RT-qPCR splicing assay, HTT mRNA canonical (CJ) and alternative (AJ) junction; type: cell-based, human; conditions: Homo sapiens; for AC50: HTT alternative junction mRNA increase, read-out: HTT AJ (increase in alternative junction mRNA, AC50)
Summary of the method: as §1

[1] = RT-qPCR, MYB canonical junction mRNA decrease, read-out: MYB CJ (decrease in canonical junction mRNA, IC50)
[2] = canonical junction qPCR panel, Table 4, read-out: MYB IC50 (decrease in CJ mRNA levels)
[3] = RT-qPCR, HTT canonical junction mRNA decrease, read-out: HTT CJ (decrease in canonical junction mRNA, IC50)
[4] = canonical junction qPCR panel, Table 4, read-out: HTT IC50 (decrease in CJ mRNA levels)

Row | SMILES | IC50 (SMN2 mRNA) [nM] | IC50 (MYB mRNA; [1]) [nM] | IC50 (MYB mRNA; [2]) [nM] | IC50 (Target C) [nM] | IC50 (HTT mRNA; [3]) [nM] | IC50 (HTT mRNA; [4]) [nM] | AC50 (MYB mRNA; RT-qPCR) [nM] | Effect of Exemplary Compounds on Cell Viability, K562 (K562 cells) | AC50 (HTT mRNA; RT-qPCR) [nM]
1 | C[C@@H]1CN(c2ccc3nc(-c4cc(F)c5nn(C)cc5c4)ncc3c2)C[C@H](C)N1 [Compound 780, 6-[(3R,5S)-3,5-dimethylpiperazin-1-yl]-2-(7-fluoro-2-methylindazol-5-yl)quinazoline] | < 100 | 100 to 1000 | 100 to 1000 | 1000 to 10000 | 1000 to 10000 | 1000 to 10000 | 100 to 1000 | B (B represents 100-1000 nM) | 1000 to 10000
2 | Cc1nc(-c2cc(F)c3nn(C)cc3c2)nc2ccc(N3C[C@@H](C)N[C@@H](C)C3)cc12 [Compound 781, 6-[(3R,5S)-3,5-dimethylpiperazin-1-yl]-2-(7-fluoro-2-methylindazol-5-yl)-4-methylquinazoline] | 100 to 1000 | 1000 to 10000 | 1000 to 10000 | > 10000 | > 10000 | > 10000 | 1000 to 10000 | C (C represents 1000-9999 nM) | > 10000
3 | Cc1nc(-c2cc3cn(C)nc3cc2O)nc2ccc(N3C[C@@H](C)N[C@@H](C)C3)cc12 [Compound 782, 5-(6-((3S,5R)-3,5-dimethylpiperazin-1-yl)-4-methylquinazolin-2-yl)-2-methyl-2H-indazol-6-ol 2,2,2-trifluoroacetate] | < 100 | 100 to 1000 | 100 to 1000 | > 10000 | 1000 to 10000 | 1000 to 10000 | 100 to 1000 | B (B represents 100-1000 nM) | > 10000
4 | Cc1nc(-c2cc3cn(C)nc3c(C)c2O)nc2ccc(N3C[C@@H](C)N[C@@H](C)C3)cc12 [Compound 783, 5-{6-[(3R,5S)-3,5-dimethylpiperazin-1-yl]-4-methylquinazolin-2-yl}-2,7-dimethylindazol-6-ol] | < 100 | 100 to 1000 | 100 to 1000 | > 10000 | > 10000 | > 10000 | 100 to 1000 | B (B represents 100-1000 nM) | > 10000
5 | Cc1c(O)c(-c2nc(C(N)=O)c3cc(N4C[C@@H](C)N[C@@H](C)C4)ccc3n2)cc2cn(C)nc12 [Compound 784, 6-[(3R,5S)-3,5-dimethylpiperazin-1-yl]-2-(6-hydroxy-2,7-dimethylindazol-5-yl)quinazoline-4-carboxamide] | < 100 | < 100 | < 100 | > 10000 | 1000 to 10000 | 1000 to 10000 | < 100 | A (A represents <100 nM) | > 10000
6 | C[C@@H]1CN(c2ccc3nc(-c4cc5cn(C)nc5cc4O)nc(C(N)=O)c3c2)C[C@H](C)N1 [Compound 785, 6-((3R,5S)-3,5-dimethylpiperazin-1-yl)-2-(6-hydroxy-2-methyl-2H-indazol-5-yl)quinazoline-4-carboxamide 2,2,2-trifluoroacetate] | < 100 | < 100 | < 100 | 1000 to 10000 | 1000 to 10000 | 1000 to 10000 | 100 to 1000 | A (A represents <100 nM) | > 10000
7 | Cc1c(O)c(-c2ncc3cc(N4CCC(N5CCC5)CC4)ccc3n2)cc2cn(C)nc12 [Compound 786, 5-{6-[4-(azetidin-1-yl)piperidin-1-yl]quinazolin-2-yl}-2,7-dimethylindazol-6-ol] | < 100 | 100 to 1000 | 100 to 1000 | 100 to 1000 | 100 to 1000 | 100 to 1000 | 100 to 1000 | B (B represents 100-1000 nM) | 100 to 1000
8 | Cn1cc2cc(-c3ncc4cc(N5CCC(N6CCC6)CC5)ccc4n3)cc(F)c2n1 [Compound 787, 6-[4-(azetidin-1-yl)piperidin-1-yl]-2-(7-fluoro-2-methylindazol-5-yl)quinazoline] | < 100 | 100 to 1000 | 100 to 1000 | 1000 to 10000 | 1000 to 10000 | 1000 to 10000 | 100 to 1000 | B (B represents 100-1000 nM) | 1000 to 10000

Further lines, with some results ahead:

Row | IC50 (SMN2 mRNA) [nM] | IC50 (MYB mRNA; [1]) [nM] | IC50 (MYB mRNA; [2]) [nM] | IC50 (Target C) [nM] | IC50 (HTT mRNA; [3]) [nM] | IC50 (HTT mRNA; [4]) [nM] | SMILES | AC50 (MYB mRNA; RT-qPCR) [nM] | Effect of Exemplary Compounds on Cell Viability, K562 (K562 cells) | AC50 (HTT mRNA; RT-qPCR) [nM]
9 | < 100 | < 100 | < 100 | 1000 to 10000 | 100 to 1000 | 100 to 1000 | Cc1cn2cc(-c3ncc4cc(N5C[C@H](C)N[C@@H](C)C5)ccc4n3)cc(Cl)c2n1 (single isomer, unassigned) [Compound 818] | < 100 | A (A represents <100 nM) | 1000 to 10000
10 | 100 to 1000 | 1000 to 10000 | 1000 to 10000 | > 10000 | > 10000 | > 10000 | C[C@H]1CN(c2ccc3nc(-c4cc(F)c5nncn5c4)ncc3c2)C[C@H](C)N1 (single isomer, unassigned) [Compound 820] | 1000 to 10000 | C (C represents 1000-9999 nM) | > 10000
11 | 100 to 1000 | 100 to 1000 | 100 to 1000 | 1000 to 10000 | 1000 to 10000 | 1000 to 10000 | Cc1nc2c(F)cc(-c3ncc4cc(N5C[C@H](C)N[C@@H](C)C5)ccc4n3)cn2c1F (single isomer, unassigned) [Compound 822] | 1000 to 10000 | B (B represents 100-1000 nM) | > 10000
12 | < 100 | 1000 to 10000 | 1000 to 10000 | 1000 to 10000 | 1000 to 10000 | 1000 to 10000 | Cc1nc(-c2cc(F)c3nn(C)cc3c2)nc2ccc(N3CCC(N4CCC4)CC3)cc12 [Compound 788, 6-[4-(azetidin-1-yl)piperidin-1-yl]-2-(7-fluoro-2-methylindazol-5-yl)-4-methylquinazoline] | 100 to 1000 | B (B represents 100-1000 nM) | 1000 to 10000
13 | < 100 | 100 to 1000 | 100 to 1000 | > 10000 | 1000 to 10000 | 1000 to 10000 | COc1cc(-c2ncc3cc(N4C[C@H](C)N[C@@H](C)C4)ccc3n2)cn2cc(C)nc12 [Compound 816] | < 100 | B (B represents 100-1000 nM) | 1000 to 10000
14 | < 100 | < 100 | < 100 | 1000 to 10000 | 100 to 1000 | 100 to 1000 | Cc1cn2cc(-c3ncc4cc(N5C[C@H](C)N[C@@H](C)C5)ccc4n3)cc(C#N)c2n1 [Compound 817] | < 100 | B (B represents 100-1000 nM) | 1000 to 10000
